Among the data in patent publication US10538555B2, “Macrocyclic inhibitors of the PD-1/PD-L1 and CD80(B7-1)/PD-L1 protein/protein interactions” (BRISTOL-MYERS SQUIBB COMPANY, priority 2014, dated 2020) are IC50 values, retold here.

pIC50: −log10 of the molar value. Where two headings read alike, the source gives them in different places. *1 amine or outer side, *2 acyl side, *3 side chain or, on linkers, in order; H or OH if unused. Where a SMILES comes first, the peptide text is derived from it. Bridges are numbered along the chain shown (N, C = ends). [ ]: non-standard residue; d: D form. Phe(3,4,5-F3) = N[C@@H](Cc1cc(F)c(F)c(F)c1)C(=O)O; d(cisHyp) = O=C(O)[C@H]1C[C@@H](O)CN1; NMeF = CN[C@@H](Cc1ccccc1)C(=O)O; X1 = O=C([C@H]1COCCN1[*:1])[*:2]; NMeNle = CCCC[C@H](NC)C(=O)O; hSer = N[C@@H](CCO)C(=O)O; Orn = NCCC[C@H](N)C(=O)O

The target of this test is T1, Human PD-L1/PD-1 (Homo sapiens, UniProt Q9NZQ7).
T1 construct: TVMV protease cleavage site (C); made in house; host or cells: HEK293T cells
T1 sequence (Q9NZQ7 with tags, fused parts or gaps): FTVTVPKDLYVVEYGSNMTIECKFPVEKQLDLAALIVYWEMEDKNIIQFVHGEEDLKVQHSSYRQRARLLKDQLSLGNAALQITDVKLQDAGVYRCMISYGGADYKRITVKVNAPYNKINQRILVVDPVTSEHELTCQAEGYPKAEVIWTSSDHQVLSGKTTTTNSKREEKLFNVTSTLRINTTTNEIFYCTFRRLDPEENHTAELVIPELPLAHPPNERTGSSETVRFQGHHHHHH
As to the kind of experiment: HTRF Human PD-L1/PD-1 binding assay (PD-1-Ig/PD-L1-His). As to conditions: PD-L1-His 10 nM, PD-1-Ig 20 nM. In short, it runs like this:
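Inhibitors were preincubated 15 min with human PD-L1(18-239)-His (10 nM final), then PD-1(25-167)-Ig (20 nM final) was added for 15 min in dPBS/0.1% BSA/0.05% Tween-20. Eu-cryptate anti-Ig (1 nM) and APC anti-His (20 nM) were added; 665/620 nm ratio read after 30 min.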
A general note: Time-resolved FRET reads energy transfer from a long-lived donor to a nearby acceptor.

Where [1] appears, read: class symbol, read-out: HTRF Human PD-L1/PD-1 Binding Assay IC50 Range.

As to `CCCC[C@H]1C(=O)N2C[C@H](O)C[C@@H]2C(=O)N[C@@H](CC(=O)O)C(=O)N[C@@H](C(C)C)C(=O)N(C)[C@@H](Cc2ccccc2)C(=O)N[C@@H](Cc2ccc(O)cc2)C(=O)N2CCOC[C@@H]2C(=O)N[C@@H](Cc2c[nH]c3ccccc23)C(=O)N[C@@H](Cc2ccc(OC)cc2)C(=O)N[C@@H](CCOC)C(=O)N[C@H](C(=O)NCC(N)=O)CSCC(=O)N[C@@H](Cc2cc(F)c(F)c(F)c2)C(=O)N(C)[C@@H](Cc2ccccc2)C(=O)N1C` [Example 10179] ({CH2CO}-[Phe(3,4,5-F3)][NMeF][NMeNle][d(cisHyp)]DV[NMeF]Y[X1]WY(Me)[hSer](Me)CG-NH2; thioether N-13), under setting [1], the pIC50 is 7.00 to 8.00.

On to `CCCC[C@H]1C(=O)N2C[C@H](O)C[C@@H]2C(=O)N[C@@H](CC(=O)O)C(=O)N[C@@H](C(C)C)C(=O)N(C)[C@@H](Cc2ccccc2)C(=O)N[C@@H](Cc2ccc(OC)cc2)C(=O)N2CCOC[C@@H]2C(=O)N[C@@H](Cc2c[nH]c3ccccc23)C(=O)N[C@@H](Cc2ccc(O)cc2)C(=O)N[C@@H](CCOC)C(=O)N[C@H](C(=O)NCC(N)=O)CSCC(=O)N[C@@H](Cc2cc(F)c(F)c(F)c2)C(=O)N(C)[C@@H](Cc2ccccc2)C(=O)N1C` [Example 10180] ({CH2CO}-[Phe(3,4,5-F3)][NMeF][NMeNle][d(cisHyp)]DV[NMeF]Y(Me)[X1]WY[hSer](Me)CG-NH2; thioether N-13), for which the pIC50 under setting [1] was 7.00 to 8.00.

On to `CCCC[C@H]1C(=O)N2CCC[C@@H]2C(=O)N[C@@H](CC(=O)O)C(=O)N[C@@H](C(C)C)C(=O)N(C)[C@@H](Cc2ccccc2)C(=O)N[C@@H](Cc2ccc(O)cc2)C(=O)N2C[C@H](O)C[C@@H]2C(=O)N[C@@H](Cc2c[nH]c3ccccc23)C(=O)N[C@@H](Cc2ccc(O)cc2)C(=O)N[C@@H](CCOC)C(=O)N[C@H](C(=O)NCC(N)=O)CSCC(=O)N[C@@H](Cc2cc(F)c(F)c(F)c2)C(=O)N(C)[C@@H](Cc2ccccc2)C(=O)N1C` [Example 10181] ({CH2CO}-[Phe(3,4,5-F3)][NMeF][NMeNle][dP]DV[NMeF]Y[d(cisHyp)]WY[hSer](Me)CG-NH2; thioether N-13), for which the pIC50 under setting [1] was 8.00 to 9.00.

Turning to `CCCC[C@H]1C(=O)N2CCC[C@@H]2C(=O)N[C@@H](CC(=O)O)C(=O)N[C@@H](C(C)C)C(=O)N(C)[C@@H](Cc2ccccc2)C(=O)N[C@@H](CCCN)C(=O)N2C[C@H](O)C[C@@H]2C(=O)N[C@@H](Cc2c[nH]c3ccccc23)C(=O)N[C@@H](Cc2ccc(O)cc2)C(=O)N[C@@H](CCOC)C(=O)N[C@H](C(=O)NCC(N)=O)CSCC(=O)N[C@@H](Cc2cc(F)c(F)c(F)c2)C(=O)N(C)[C@@H](Cc2ccccc2)C(=O)N1C` [Example 10182] ({CH2CO}-[Phe(3,4,5-F3)][NMeF][NMeNle][dP]DV[NMeF][Orn][d(cisHyp)]WY[hSer](Me)CG-NH2; thioether N-13), under setting [1], the pIC50 was 8.00 to 9.00.

On to `CCCC[C@H]1C(=O)N2CCOC[C@@H]2C(=O)N[C@@H](CC(=O)O)C(=O)N[C@@H](C(C)C)C(=O)N(C)[C@@H](Cc2ccccc2)C(=O)N[C@@H](Cc2ccc(O)cc2)C(=O)N2C[C@H](O)C[C@@H]2C(=O)N[C@@H](Cc2c[nH]c3ccccc23)C(=O)N[C@@H](Cc2ccc(O)cc2)C(=O)N[C@@H](CCOC)C(=O)N[C@H](C(=O)NCC(N)=O)CSCC(=O)N[C@@H](Cc2cc(F)c(F)c(F)c2)C(=O)N(C)[C@@H](Cc2ccccc2)C(=O)N1C` [Example 10183] ({CH2CO}-[Phe(3,4,5-F3)][NMeF][NMeNle][X1]DV[NMeF]Y[d(cisHyp)]WY[hSer](Me)CG-NH2; thioether N-13), for which the pIC50 under setting [1] is 7.00 to 8.00.

Take `CCCC[C@H]1C(=O)N2CCOC[C@@H]2C(=O)N[C@@H](CC(=O)O)C(=O)N[C@@H](C(C)C)C(=O)N(C)[C@@H](Cc2ccccc2)C(=O)N[C@@H](CCCN)C(=O)N2C[C@H](O)C[C@@H]2C(=O)N[C@@H](Cc2c[nH]c3ccccc23)C(=O)N[C@@H](Cc2ccc(O)cc2)C(=O)N[C@@H](CCOC)C(=O)N[C@H](C(=O)NCC(N)=O)CSCC(=O)N[C@@H](Cc2cc(F)c(F)c(F)c2)C(=O)N(C)[C@@H](Cc2ccccc2)C(=O)N1C` [Example 10184] ({CH2CO}-[Phe(3,4,5-F3)][NMeF][NMeNle][X1]DV[NMeF][Orn][d(cisHyp)]WY[hSer](Me)CG-NH2; thioether N-13): the pIC50 under setting [1] was 7.00 to 8.00.

With `CCCC[C@H]1C(=O)N2CCOC[C@@H]2C(=O)N[C@@H](CC(=O)O)C(=O)N[C@@H](C(C)C)C(=O)N(C)[C@@H](Cc2ccccc2)C(=O)N[C@@H](Cc2ccc(O)cc2)C(=O)N2CCC[C@@H]2C(=O)N[C@@H](Cc2c[nH]c3ccccc23)C(=O)N[C@@H](Cc2ccc(O)cc2)C(=O)N[C@@H](CCOC)C(=O)N[C@H](C(=O)NCC(N)=O)CSCC(=O)N[C@@H](Cc2cc(F)c(F)c(F)c2)C(=O)N(C)[C@@H](Cc2ccccc2)C(=O)N1C` [Example 10185] ({CH2CO}-[Phe(3,4,5-F3)][NMeF][NMeNle][X1]DV[NMeF]Y[dP]WY[hSer](Me)CG-NH2; thioether N-13), under setting [1], the pIC50 was 8.00 to 9.00.

With `CCCC[C@H]1C(=O)N2C[C@H](O)C[C@@H]2C(=O)N[C@@H](CC(=O)O)C(=O)N[C@@H](C(C)C)C(=O)N(C)[C@@H](Cc2ccccc2)C(=O)N[C@@H](Cc2ccc(O)cc2)C(=O)N2CCC[C@@H]2C(=O)N[C@@H](Cc2c[nH]c3ccccc23)C(=O)N[C@@H](Cc2ccc(O)cc2)C(=O)N[C@@H](CCOC)C(=O)N[C@H](C(=O)NCC(N)=O)CSCC(=O)N[C@@H](Cc2cc(F)c(F)c(F)c2)C(=O)N(C)[C@@H](Cc2ccccc2)C(=O)N1C` [Example 10186] ({CH2CO}-[Phe(3,4,5-F3)][NMeF][NMeNle][d(cisHyp)]DV[NMeF]Y[dP]WY[hSer](Me)CG-NH2; thioether N-13), the pIC50 under setting [1] is 7.00 to 8.00.

As for `CCCC[C@H]1C(=O)N2CCC[C@@H]2C(=O)N[C@@H](CC(=O)O)C(=O)N[C@@H](C(C)C)C(=O)N(C)[C@@H](Cc2ccccc2)C(=O)N[C@@H](Cc2ccc(O)cc2)C(=O)N2CCOC[C@@H]2C(=O)N[C@@H](Cc2c[nH]c3ccccc23)C(=O)N[C@@H](Cc2ccc(O)cc2)C(=O)N[C@@H](CCOC)C(=O)N[C@H](C(=O)NCC(N)=O)CSCC(=O)N[C@@H](Cc2cc(F)c(F)c(F)c2)C(=O)N(C)[C@@H](Cc2ccccc2)C(=O)N1C` [Example 10187] ({CH2CO}-[Phe(3,4,5-F3)][NMeF][NMeNle][dP]DV[NMeF]Y[X1]WY[hSer](Me)CG-NH2; thioether N-13), under setting [1], the pIC50 is 8.00 to 9.00.

For the compound `CCCC[C@H]1C(=O)N2CCC[C@@H]2C(=O)N[C@@H](CC(=O)O)C(=O)N[C@@H](C(C)C)C(=O)N(C)[C@@H](Cc2ccccc2)C(=O)N[C@@H](CCC(=O)O)C(=O)N2C[C@H](O)C[C@@H]2C(=O)N[C@@H](Cc2c[nH]c3ccccc23)C(=O)N[C@@H](Cc2ccc(O)cc2)C(=O)N[C@@H](CCOC)C(=O)N[C@H](C(=O)NCC(N)=O)CSCC(=O)N[C@@H](Cc2cc(F)c(F)c(F)c2)C(=O)N(C)[C@@H](Cc2ccccc2)C(=O)N1C` [Example 10188] ({CH2CO}-[Phe(3,4,5-F3)][NMeF][NMeNle][dP]DV[NMeF]E[d(cisHyp)]WY[hSer](Me)CG-NH2; thioether N-13), under setting [1], the pIC50 is 8.00 to 9.00.

With `CCCC[C@H]1C(=O)N2CCOC[C@@H]2C(=O)N[C@@H](CC(=O)O)C(=O)N[C@@H](C(C)C)C(=O)N(C)[C@@H](Cc2ccccc2)C(=O)N[C@@H](CCC(=O)O)C(=O)N2C[C@H](O)C[C@@H]2C(=O)N[C@@H](Cc2c[nH]c3ccccc23)C(=O)N[C@@H](Cc2ccc(O)cc2)C(=O)N[C@@H](CCOC)C(=O)N[C@H](C(=O)NCC(N)=O)CSCC(=O)N[C@@H](Cc2cc(F)c(F)c(F)c2)C(=O)N(C)[C@@H](Cc2ccccc2)C(=O)N1C` [Example 10189] ({CH2CO}-[Phe(3,4,5-F3)][NMeF][NMeNle][X1]DV[NMeF]E[d(cisHyp)]WY[hSer](Me)CG-NH2; thioether N-13), the pIC50 under setting [1] is 7.00 to 8.00.

Take `CCCC[C@H]1C(=O)N2CCOC[C@@H]2C(=O)N[C@@H](CC(=O)O)C(=O)N[C@@H](C(C)C)C(=O)N(C)[C@@H](Cc2ccccc2)C(=O)N[C@@H](CCCN)C(=O)N2CCC[C@@H]2C(=O)N[C@@H](Cc2c[nH]c3ccccc23)C(=O)N[C@@H](Cc2ccc(O)cc2)C(=O)N[C@@H](CCOC)C(=O)N[C@H](C(=O)NCC(N)=O)CSCC(=O)N[C@@H](Cc2cc(F)c(F)c(F)c2)C(=O)N(C)[C@@H](Cc2ccccc2)C(=O)N1C` [Example 10190] ({CH2CO}-[Phe(3,4,5-F3)][NMeF][NMeNle][X1]DV[NMeF][Orn][dP]WY[hSer](Me)CG-NH2; thioether N-13): for the setting “read-out: HTRF Human PD-L1/PD-1 Binding Assay IC50”, the pIC50 was 8.09.

Regarding `CCCC[C@H]1C(=O)N2C[C@H](O)C[C@@H]2C(=O)N[C@@H](CC(=O)O)C(=O)N[C@@H](C(C)C)C(=O)N(C)[C@@H](Cc2ccccc2)C(=O)N[C@@H](CCCN)C(=O)N2CCC[C@@H]2C(=O)N[C@@H](Cc2c[nH]c3ccccc23)C(=O)N[C@@H](Cc2ccc(O)cc2)C(=O)N[C@@H](CCOC)C(=O)N[C@H](C(=O)NCC(N)=O)CSCC(=O)N[C@@H](Cc2cc(F)c(F)c(F)c2)C(=O)N(C)[C@@H](Cc2ccccc2)C(=O)N1C` [Example 10191] ({CH2CO}-[Phe(3,4,5-F3)][NMeF][NMeNle][d(cisHyp)]DV[NMeF][Orn][dP]WY[hSer](Me)CG-NH2; thioether N-13), under setting [1], the pIC50 was 8.00 to 9.00.

For the compound `CCCC[C@H]1C(=O)N2CCOC[C@@H]2C(=O)N[C@@H](CC(=O)O)C(=O)N[C@@H](C(C)C)C(=O)N(C)[C@@H](Cc2ccccc2)C(=O)N[C@@H](CCC(=O)O)C(=O)N2CCC[C@@H]2C(=O)N[C@@H](Cc2c[nH]c3ccccc23)C(=O)N[C@@H](Cc2ccc(O)cc2)C(=O)N[C@@H](CCOC)C(=O)N[C@H](C(=O)NCC(N)=O)CSCC(=O)N[C@@H](Cc2cc(F)c(F)c(F)c2)C(=O)N(C)[C@@H](Cc2ccccc2)C(=O)N1C` [Example 10192] ({CH2CO}-[Phe(3,4,5-F3)][NMeF][NMeNle][X1]DV[NMeF]E[dP]WY[hSer](Me)CG-NH2; thioether N-13), the pIC50 under setting [1] is 7.00 to 8.00.
